Measured values from the NIST ThermoML archive (doi:10.1021/je034225b).

Assays:
[1] = xn = mol fraction of the nth substance listed; details: for surface tension liquid-gas: 297 K; for mass density: 100 kPa, Liquid, Pycnometric method
[2] = 297 K

CNC [dimethylamine] + O
[1]
Details | surface tension liquid-gas [mN/m]
x1 = 0.002 | 68.4
x1 = 0.003 | 65.7
x1 = 0.004 | 65.8
x1 = 0.006 | 64.7
x1 = 0.008 | 62.8
x1 = 0.01 | 61.8
x1 = 0.013 | 60.4
x1 = 0.016 | 58.4
x1 = 0.025 | 56.1
x1 = 0.034 | 53.2
x1 = 0.043 | 51
x1 = 0.052 | 49.1
x1 = 0.061 | 48.1
x1 = 0.071 | 47.8
x1 = 0.091 | 42.4
x1 = 0.112 | 40.4
x1 = 0.135 | 38.9
x1 = 0.158 | 36.8
x1 = 0.184 | 35.3
x1 = 0.21 | 33.7

[1], 298.15 K
Details | mass density [kg/m3]
x1 = 0.001 | 998
x1 = 0.002 | 994
x1 = 0.004 | 988
x1 = 0.008 | 987
x1 = 0.016 | 984
x1 = 0.025 | 974
x1 = 0.034 | 969
x1 = 0.043 | 967
x1 = 0.091 | 941
x1 = 0.146 | 918
x1 = 0.21 | 888

O=S(=O)(O)O [sulfuric acid] + O
[1]
Details | surface tension liquid-gas [mN/m]
x1 = 0.001 | 71.6
x1 = 0.003 | 71.4
x1 = 0.006 | 71.2
x1 = 0.008 | 71.9
x1 = 0.026 | 72.4
x1 = 0.052 | 73.1
x1 = 0.09 | 74
x1 = 0.125 | 74.7
x1 = 0.18 | 75.2
x1 = 0.25 | 73.6
x1 = 0.35 | 72.3
x1 = 0.48 | 69.4

mass density [kg/m3], [1]
Details | 298.15 K | 571.15 K
x1 = 0.001 | 998 | –
x1 = 0.003 | 1005 | 1005
x1 = 0.006 | 1017 | –
x1 = 0.008 | 1024 | –
x1 = 0.026 | 1085 | –
x1 = 0.052 | 1156 | –
x1 = 0.09 | 1253 | –
x1 = 0.125 | 1328 | –
x1 = 0.18 | 1422 | –
x1 = 0.25 | 1528 | –
x1 = 0.35 | 1622 | –
x1 = 0.48 | 1725 | –

O [water]
Details | surface tension liquid-gas [mN/m]
[2] | 70.4
